Source: PMC7279038, “Antioxidant and Neuroprotective Effects Induced by Cannabidiol and Cannabigerol in Rat CTX-TNA2 Astrocytes and Isolated Cortexes” (International Journal of Molecular Sciences, 2020)

Tests used:
[1] = system: CTX-TNA2 rat astrocyte cell line; assay: MTT assay; format: cell-based; conditions: for cell proliferation (MTT): basal conditions, 48 h, cannabidiol 1000 nM, cannabigerol 100 and 1000 nM; for protection from H2O2 cytotoxicity (MTT): cells challenged with 300 µM H2O2, CBD 1000 nM, CBG 1 nM
Experimental: (§1) The CTX-TNA2 rat astrocytes were purchased from the European Collection of Cell Cultures (ECACC), Sigma-Aldrich, Milan, Italy, and cultured as already indicated. Cells were grown in Dulbecco’s Modified Eagle Medium supplemented with 10% of FBS and penicillin–streptomycin (100 µgmL^−1) (all from EuroClone SpA Life-Sciences-Division, Milan, Italy) and maintained in a humified atmosphere of 5% CO2 at 37 °C. Cells were subcultivated at a ratio of 1.2 to 1.8 and the medium was changed every 3 days. CTX-TNA2 astrocytes were plated in 25 or 75 cm^2 flasks, according to experimental needing and cells between the eight and the 15 passage were used.
When indicated, the cells were treated with H2O2 300 µM for three hours and different concentrations of CBD (1–1000 nM) and CBG (1–1000 nM). The stock solutions were diluted in cell medium to the point that the concentration of DMSO in the samples was less than 0.0003%. Therefore, the addition of DMSO to the control samples was not necessary.
The 3 [4–dimethylthiazol-2yl]-2,5-diphenyl tetrazolium bromide (MTT) growth assay (Sigma-Aldrich S.r.l.) was used to assess cell proliferation as previously described. Briefly, The CTX-TNA2 cells were seeded into 96-well plate at 8 × 10^3 cells/well and treated as described above. After 24 and 48 h, a medium containing 0.5 mg/mL MTT was added to the cells, and the cells were incubated at 37 °C for 3 h. Following a further incubation of 30 min in DMSO, the absorbance at 570 nm was measured using a Multiscan GO microplate spectrophotometer (Thermo Fisher Scientific, Waltham, MA, USA).

[2] = system: CTX-TNA2 astrocyte cell line; assay: ROS production by flow cytometry; format: cell-based, rat; conditions: challenged with 300 µM H2O2; 1000 nM CBD, 1 nM CBG; 24 and 48 h
Experimental: as §1
When indicated, the cells were treated with H2O2 300 µM for three hours and different concentrations of CBD (1–1000 nM) and CBG (1–1000 nM). […]
Reactive oxygen species (ROS) production was determined as already reported by monitoring by flow cytometry the increase in green fluorescence after labeling the cells (5 × 10^5) with 5 μmolL^−1 of 5-(and-6)-chloromethyl-2′,7′-dichlorodihydrofluorescein diacetate, acetyl ester (CM-H2DCFDA, Molecular Probes, Invitrogen, Life-Sciences-Division, Milano, Italy) for 40 min followed by 20 min of recovery at 37 °C. The increase in green fluorescence, indicating the production of ROS, was detected by a Cytoflex flow cytometer with an FL1 detector in a log mode (Beckmann Coulter, FL, USA). […]

rat hypothalamic neurons = system: rat hypothalamic neurons; set-up: method as in PMID 31941059; conditions: ex vivo model, hydrogen peroxide; cited from earlier work
hypothalamic 5-HT = system: hypothalamic 5-HT; set-up: method as in PMID 31941059; conditions: cited from earlier work

Structure (SMILES)	cell proliferation (MTT) [1]	protection from H2O2 cytotoxicity (MTT) [1]	ROS production [2]	neuroprotection (rat hypothalamic neurons)	basal hypothalamic 5-HT levels (hypothalamic 5-HT)
CCCCCc1cc(O)c(C/C=C(\C)CCC=C(C)C)c(O)c1 [CBG, cannabigerol]	increase in cell proliferation	effective at the lowest concentration (1 nM)	reduction in ROS production	neuroprotection only at low concentrations	–
C=C(C)[C@@H]1CCC(C)=C[C@H]1c1c(O)cc(CCCCC)cc1O [CBD, Cannabidiol]	increase in cell proliferation	effective in protecting the cells from oxidative damage	reduction in ROS production	–	stimulate basal hypothalamic 5-HT levels
